Like-named read-outs stand apart in the source and are kept apart here.
Key:
[1] = test system: twitch responses of the extensor digitorum of the foot (peroneal nerve stimulation); experiment: Neuromuscular blocking potency and duration: twitch blockade dose-response in anesthetized rhesus monkeys; format: in vivo, rhesus monkey (Macaca mulatta); conditions: for ED95: Macaca mulatta; for Duration (min ± SD): at the actual dose administered, injection to recovery of twitch to 95% of control
Method: (§1) Selected NMBA compounds were tested as described in PCT/US2010/000796 application by an inventor herein, published as WO2010/107488, which is incorporated by reference, see pages 66-78. Dose-response curves for twitch blockade by test compounds were generated as described. […] Successive doses were separated by at least three estimated half lives beyond complete recovery of the previous dose to TOF of 110-120%, which is normal for these monkeys. Only the first one or two doses yielding 5 to 99% blockade were included from any single experiment for computation of dose-response data. Comparative studies of spontaneous recovery versus antagonism/reversal were done at least 3 estimated half-lives following dose-response studies. ED50 and ED95 were computed from the regression of log dose vs. the logit of percentage blockade of twitch.
Experiments were approved by the Institutional Animal Care and Use Committee of Weill Medical College of Cornell University (New York, N.Y.) and of Albany Medical College (Albany, N.Y.), where the studies were conducted. A colony of 10 adult male monkeys (Macaca mulatta) weighing 8-18 kg was studied at ˜6 week intervals. Animals were housed and cared for in accordance with the Guide for Care and Use of Laboratory Animals (National Research Council, Washington, D.C.). They were fed a standard Old World monkey diet, enriched with fruits and vegetables, and other dietary novelties and were followed throughout the study to verify normal health by physical examination, body weight, and clinical laboratory studies (Complete Blood Count, Blood Urea Nitrogen and creatinine, and liver function tests).
(§2) On the day of each study, monkeys received ketamine (7-10 mg/kg i.m.) followed by tracheal intubation under topical anesthesia with 4% lidocaine. Ventilation was controlled at 10 mL/kg and 20 breaths/min with isoflurane (1.0-2.0%) and N2O/O2 (2:1 mixture). Ringers lactate was administered at ˜10 ml kg^−1 h^−1. Arterial pressure was monitored from a femoral, superficial tibial, or radial (22 gauge) cannula. Heart rate was measured by tachograph from the arterial pulse wave. Core temperature was kept at 36.5-38.0° C. by warming blankets. Electrocardiogram and pulse oximetry were monitored continuously.
(§3) Needle electrodes (25 gauge) transmitting square-wave pulses of 0.2 msec duration at supramaximal voltage which were generated by a Grass S-88 stimulator (Grass Instruments, Quincy, Mass.) were placed at the peroneal nerve at the knee to elicit twitch responses of the extensor digitorum of the foot at 0.15 Hz. A small slip (10-20%) of the tendon was dissected free under sterile technique and tied to a Grass FT 10 force transducer (Grass Instruments, Quincy, Mass.) at a baseline tension of 50 gm. Train-of four stimulation (TOF, 2 Hz for 2 sec) was interposed at appropriate points, especially 1-2 min prior to NMBA dosing and following recovery of twitch to 95% of baseline, where TOF was subsequently evaluated every 1-2 min.
Recordings of circulatory and neuromuscular data were made on a Grass 7B polygraph (Grass Instruments). A baseline period of 15-20 min was allowed for stabilization of recordings prior to dosing.^2
Dose-response curves for twitch blockade by gantacurium, CW 002, CW 011, cisatracurium, CW002-Cys, NB 938-69, NB 1064-81, NB 802-17 (CW 001), NB 832-65, and NB 1163-79, structures of which are all shown above, were generated as follows. […] Successive doses were separated by at least three estimated half lives beyond complete recovery of the previous dose to TOF of 110-120%, which is normal for these monkeys. Only the first one or two doses yielding 5 to 99% blockade were included from any single experiment for computation of dose-response data.
ED 50 and ED 95 were computed from the regression of log dose vs. the logit of percentage blockade of twitch.

[2] = test system: twitch responses of the extensor digitorum of the foot (peroneal nerve stimulation); experiment: Spontaneous recovery versus reversal of neuromuscular blockade by cysteine in monkeys; format: in vivo, rhesus monkey (Macaca mulatta); conditions: Table 1; reversal of the blockade by cysteine
Method: as §1, §2, §3
Comparative studies of spontaneous recovery versus antagonism/reversal were done at least 3 estimated half-lives following dose-response studies.

[3] = Table 3, dose 0.064 ± 0.010 (gantacurium) or 0.060 ± 0.012 mg/kg (CW1759-50)

| Structure (SMILES) | Blockade (%) [1, 3] [%] | Onset [1, 3] [s] | Total Duration [1, 3] [min] | ED95 in a control study ([1]; rhesus monkeys, control study for comparison) [mg·kg] | ED95 [1] [mg/kg] | Duration (min ± SD) ([1]; Table 1) [min] | Reversibility (Cysteine) [2] | ED95 ([1]; Table 1, calculated dose for 95% block of twitch, monkeys, read-out: ED 95) [mg/kg] |
| --- | --- | --- | --- | --- | --- | --- | --- | --- |
| COc1cc2c(cc1OC)[C@H](c1cc(OC)c(OC)c(OC)c1)[N@@+](C)(CCCOC(=O)/C=C(\Cl)C(=O)OCCC[N@+]1(C)CCc3cc(OC)c(OC)cc3[C@H]1Cc1cc(OC)c(OC)c(OC)c1)CC2 [Gantacurium, gantacurium, reference compound] | 99.2 ± 0.5 | 97.1 ± 11.7 | 7.4 ± 1.9 | 0.063 ± 0.0021 | – | – | – | – |
| COc1ccc(C[C@@H]2c3cc(OC)c(OC)cc3CC[N@@+]2(C)CCCOC(=O)/C=C\C(=O)OCCC[N+]2(Cc3ccc(OC)c(OC)c3OC)CCCC2)cc1OC [Compound 1449-35] | – | – | – | – | 0.126 | 5 | Yes | – |
| COc1ccc(C[C@@H]2c3cc(OC)c(OC)cc3CC[N@@+]2(C)CCCOC(=O)/C=C\C(=O)OCCC[N+]2(Cc3ccc(OC)cc3)CCOCC2)cc1 [Compound 1625-05] | – | – | – | – | 0.09 | 6 | Yes | – |
| COc1ccc(C[C@@H]2c3cc(OC)c(OC)cc3CC[N@@+]2(C)CCCOC(=O)/C=C\C(=O)OCCC[N+]2(Cc3cc(OC)c(OC)c(OC)c3)CCCC2)cc1OC [Compound 1343-13] | – | – | – | – | 0.06 | 8.8 ± 2.6 | Yes | – |
| COc1ccc(C[C@@H]2c3cc(OC)c(OC)cc3CC[N@@+]2(C)CCCOC(=O)/C(Cl)=C/C(=O)OCCC[N+]2(Cc3cc(OC)c(OC)c(OC)c3)CCOCC2)cc1OC [Compound 1566-22] | – | – | – | – | 0.19 | 3.7 ± 0.3 | Yes | – |
| COc1ccc2c(c1)CC[N@@+](C)(CCCOC(=O)/C=C\C(=O)OCCC[N+]1(Cc3ccc(OC)c(OC)c3)CCOCC1)[C@@H]2Cc1ccc(OC)c(OC)c1 [Compound 1759-85] | – | – | – | – | – | 5.4 ± 1.3 | Yes | 0.22 |
| COc1cc2c(cc1OC)[C@@H](Cc1cc(OC)c(OC)c(OC)c1)[N@+](C)(CCCOC(=O)/C(Cl)=C/C(=O)OCCC[N+]1(Cc3ccc4c(c3)OCCO4)CCOCC1)CC2 [Compound 1598-46] | – | – | – | – | 0.1 | 6.8 ± 2.3 | Yes | – |
| COc1cc2c(cc1OC)[C@@H](Cc1cc(OC)c(OC)c(OC)c1)[N@+](C)(CCCOC(=O)/C(Cl)=C/C(=O)OCCC[N+]1(Cc3cc(OC)c(OC)c(OC)c3)CCCCC1)CC2 [Compound 1343-05] | – | – | – | – | 0.07 | 6.7 ± 2.1 | Yes | – |
| COc1ccc(C[C@@H]2c3cc(OC)c(OC)cc3CC[N@@+]2(C)CCCOC(=O)/C=C\C(=O)OCCC[N+]2(Cc3cc(OC)c(OC)c(OC)c3)CCOCC2)cc1 [Compound 1759-58] | – | – | – | – | 0.064 | 6 to 8 | Yes | – |
